From ChEMBL document CHEMBL1144165, “Cyclic diarylheptanoids from Myrica nana inhibiting nitric oxide release” (Bioorg Med Chem, 2008)
Active and inactive are the calls of the source. The rule behind the calls is not given here.

Legend:
[1] = system: Macrophage; experiment: Inhibition of LPS-stimulated nitric oxide production in BALB/c mouse macrophages at 1 uM after 20 hrs by Griess assay relative to control; format: functional
[2] = system: Macrophage; experiment: Inhibition of LPS-stimulated nitric oxide production in BALB/c mouse macrophages at 30 uM after 20 hrs by Griess assay relative to control; format: functional
[3] = system: Macrophage; experiment: Inhibition of LPS-stimulated nitric oxide production in BALB/c mouse macrophages at 3 uM after 20 hrs by Griess assay relative to control; format: functional
[4] = system: Macrophage; experiment: Inhibition of LPS-stimulated nitric oxide production in BALB/c mouse macrophages at 10 uM after 20 hrs by Griess assay relative to control; format: functional
[5] = system: Macrophage; experiment: Inhibition of LPS-stimulated nitric oxide production in BALB/c mouse macrophages at 100 uM after 20 hrs by Griess assay relative to control; format: functional
[6] = system: Macrophage; experiment: Inhibition of LPS-stimulated nitric oxide production in BALB/c mouse macrophages after 20 hrs by Griess assay relative to control; format: functional, cell-based
[7] = system: Macrophage; experiment: Inhibition of iNOS expression in LPS-activated BALB/c mouse macrophages at 1 to 100 uM after 12 hrs by SDS-PAGE; format: functional, cell-based

IC50 [6] [µM]	Compound	inhibition at 1 µM [1] [%]	inhibition at 30 µM [2] [%]	inhibition at 3 µM [3] [%]	inhibition at 10 µM [4] [%]	inhibition at 100 µM [5] [%]	Activity [7]
–	COc1c2cc(c(O)c1OC)CCCCC(=O)C(OC)Cc1cc(O)c(O)c-2c1 (stereo unspecified) [MYRICANANIN E]	-3.27	29.8	9.22	15.3	49.2	–
52.8	COc1c2cc(c(O)c1OC)CCCC[C@@H]1OC(C)(C)O[C@H]1Cc1ccc(O)c-2c1 [MYRICANANIN B]	17.3	49.7	32.8	39.2	55.8	–
–	COc1c2cc(c(O)c1OC)CCCCC(=O)/C=C\c1cc(O)c(O)c-2c1 [MYRICANANIN D]	6.12	19.1	17.7	23.8	31.8	–
46.2	O=C1CCc2ccc(O)c(c2)-c2cc(ccc2O)CCC(O)C1 (stereo unspecified) [ALNUSONOL]	-3.39	41.1	34.8	45.8	54.5	–
63.5	COc1cc2cc(c1O)-c1cc(ccc1O)CCC(=O)CCCC2 [MYRICANANIN C]	17.3	42.6	32.8	39.1	50.1	–
45.3	COc1cc2cc(c1O)-c1cc(ccc1O)C[C@H](O)[C@@H](O)CCCC2 [MYRICANANIN A]	0.84	50.8	-0.13	36	84.4	Active
30.2	COc1c2cc(c(O)c1OC)CCCCC(=O)C(O)Cc1ccc(O)c-2c1 (stereo unspecified)	35.1	55.7	48.7	41.8	65.5	–
–	COC1=C(OC)C(=O)C2=C(CCCCC(O)CCc3ccc(O)c2c3)C1=O (stereo unspecified) [ACTINIDIONE]	9.52	31.4	21.1	22.9	38.7	–
